Values quoted from earlier work as cited in patent publication US8916562B2, “Methods and compositions for safe and effective treatment of telangiectasia” (Galderma Research & Development SNC, priority 2010, dated 2014).

Conditions: brimonidine ophthalmic treatment, clinical trials

Brc1c(NC2=NCCN2)ccc2nccnc12 [brimonidine, (5-bromo-quinoxalin-6-yl)-(4,5-dihydro-1H-imidazol-2-yl)-amine]
patients reporting hypertension, palpitations and syncope: less than 3%
